Reference: patent EP0193249A2, “Benzoyl urea derivatives having ati-tumor activity” (DUPHAR INTERNATIONAL RESEARCH B.V, priority 1985, dated 1986)

These compounds were tested on B16 melanoma cells (assay: B16 melanoma test (test 1)). Conditions: Mus musculus, 50 /ug/ml, aqueous suspension, incubation 20 hours, cells counted 48 hours after start.
Assay type: cell-based
Procedure: B16 melanoma cells grow as a "mono]ayer". The doubling time of these cells in a cell culture is 12-16 hours.
On day 0, a quantity of […] B16 melanoma cells is introduced in each cell culture dish.
On day 1 the compounds to be examined are vortexed in the presence of glass beads. The compound to be tested is then added to the dishes with melanoma celles in the desired quantity. The incubation takes place at 37°C for 20 hours in a C02 incubator. The incubation is terminated by removing the culture medium with therein the compound to be tested, after which the cells are wahsed once and fresh medium is added.
Forty-eight hours after the beginning of the incubation the quantity of cells in each dish is measured by means of a microcell Coulter Counter. The results thus obtained are expressed by indicating the activity of the compounds by 1+, 2+, 3+, 4+ or 5+ having the following meanings: • 1+: cell growth is inhibited by 1-20% with respect to the control test • 2+: cell growth is inhibited by 21-40% with respect to the control test • 3+: cell growth is inhibited by 41-60% with respect to the control test • 4+: cell growth is inhibited by 61-80% with respect to the control test • 5+: cell growth is inhibited by 81-100% with respect to the control test.
Sensitivity of B16 melanoma cells.
In the above-described manner, various compounds according to the invention were tested in dosages of 50 /ug/ml in the form of an aqueous suspension.

Question: With `COc1ccc(NC(=O)NC(=O)c2c(F)cccc2N(C)C)cc1` [compound 11] as the compound, how does the inhibition at 50 µg/mL read?
Answer: 81 to 100%

Question: With `O=C(NC(=O)c1c(F)c(F)c(F)c(F)c1F)Nc1ccc(Cl)cc1` [compound 7] as the compound, how does the inhibition at 50 µg/mL read?
Answer: 61 to 80%

Question: For `O=C(NC(=O)Nc1ccc(Cl)cc1)NC(=O)c1c(O)cccc1Cl` [compound 16], which inhibition at 50 µg/mL is on record?
Answer: 61 to 80%

Question: For `CN(C)c1cccc(F)c1C(=O)NC(=O)Nc1ccc(Cl)cc1` [compound 3], which inhibition at 50 µg/mL is on record?
Answer: 81 to 100%

Question: For `Nc1cc(N)c(Cl)c(C(=O)NC(=O)Nc2ccc(Cl)cc2)c1Cl` [compound 9], which inhibition at 50 µg/mL is on record?
Answer: 21 to 40%

Question: `CCN(CC)c1cccc(F)c1C(=O)NC(=O)Nc1ccc(Cl)cc1` [compound 17] was tested. Which inhibition at 50 µg/mL did it give?
Answer: 21 to 40%

Question: How did the inhibition at 50 µg/mL turn out when `O=C(NC(=O)c1ccccc1N1CCCCC1)Nc1ccc(C(F)(F)F)cc1` [compound 10] was run?
Answer: 1 to 20%

Question: `CCOC(=O)c1ccc(NC(=O)NC(=O)c2c(F)cccc2F)cc1` [compound 5] was tested. Which inhibition at 50 µg/mL did it give?
Answer: 41 to 60%

Question: `O=C(NC(=O)c1c(F)c(F)c(F)c(F)c1F)Nc1c(F)c(F)c(F)c(F)c1F` [compound 6] was tested. Which inhibition at 50 µg/mL did it give?
Answer: 81 to 100%

Question: For `O=C(NC(=O)c1c(F)c(F)c(F)c(F)c1F)Nc1ccc(O)c(C(F)(F)F)c1` [compound 2], which inhibition at 50 µg/mL is on record?
Answer: 81 to 100%

Question: `O=C(NC(=O)c1c(F)cccc1F)Nc1ccc(C(O)(C(F)(F)F)C(F)(F)F)cc1` [compound 4] was tested. Which inhibition at 50 µg/mL did it give?
Answer: 81 to 100%

Question: With `O=C(NC(=O)c1c(O)cccc1Cl)Nc1c(F)c(F)c(F)c(F)c1F` [compound 1] as the compound, how does the inhibition at 50 µg/mL read?
Answer: 61 to 80%

Question: How did the inhibition at 50 µg/mL turn out when `CN(C)c1ccccc1C(=O)NC(=O)Nc1ccc(Cl)cc1` [compound 15] was run?
Answer: 81 to 100%

Question: Which inhibition at 50 µg/mL does the source give for `CN(C)c1cccc(F)c1C(=O)NC(=O)Nc1c(F)c(F)c(F)c(F)c1F` [compound 12] here?
Answer: 61 to 80%

Question: For `Nc1ccc(C(=O)NC(=O)Nc2ccccc2N)cc1` [compound 8], which inhibition at 50 µg/mL is on record?
Answer: 1 to 20%

Question: Which inhibition at 50 µg/mL does the source give for `Nc1ccccc1C(=O)NC(=O)Nc1ccc(Cl)cc1` [compound 13] here?
Answer: 1 to 20%

Question: With `CC(Oc1ccc(NC(=O)NC(=O)c2c(F)cccc2F)cc1)c1ccncc1` (centres unmarked) [compound 14] as the compound, how does the inhibition at 50 µg/mL read?
Answer: 61 to 80%
